Assay results from patent US9556159B2, “Renin inhibitor” (MITSUBISHI TANABE PHARMA CORPORATION, priority 2012, dated 2017).
pIC50: −log10 of the molar value. Where two headings read alike, the source gives them in different places.

Biological target: T1, Recombinant human renin (Homo sapiens, UniProt P00797)
T1 sequence (P00797 67-406): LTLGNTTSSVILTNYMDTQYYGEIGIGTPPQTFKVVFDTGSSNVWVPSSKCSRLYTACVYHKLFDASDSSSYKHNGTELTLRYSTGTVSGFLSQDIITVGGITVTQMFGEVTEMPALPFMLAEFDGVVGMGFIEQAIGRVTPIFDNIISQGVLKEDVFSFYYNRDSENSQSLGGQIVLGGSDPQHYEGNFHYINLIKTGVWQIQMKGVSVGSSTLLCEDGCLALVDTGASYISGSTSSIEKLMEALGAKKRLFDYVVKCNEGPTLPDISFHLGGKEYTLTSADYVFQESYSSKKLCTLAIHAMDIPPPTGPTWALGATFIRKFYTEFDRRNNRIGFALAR
Assay: Inhibitory activity against human renin (fluorogenic peptide substrate)
Type: biochemical
Conditions: 37° C. for 1 hour

[1] = 50% inhibitory concentration (IC50) against human renin

Row | Structure (SMILES) | pIC50 [1] | pIC50 (read-out: IC50)
1 | COC(=O)NCCCn1cc([C@@H](C)N(C(=O)[C@H]2CNCCO2)C2CC2)c2ncc(Br)cc21 [Example 114] | 8.96 | 
2 | CCc1cn(CCCOC)c2cc([C@@H](C)N(C(=O)[C@H]3CNCCO3)C3CC3)nc(C#N)c12 [Example 150] | 8.59 | 
3 | COC(=O)NCCCn1cc([C@@H](C)N(C(=O)[C@H]2CNCCO2)C2CC2)nc1C1CCOCC1 [Example 291] | 9.22 | 
4 | COC(=O)NCCCc1cc([C@@H](C)N(C(=O)[C@H]2CNCCO2)C2CC2)sc1-c1ccccc1NS(=O)(=O)C(F)(F)F [Example 297] | 9.30 | 
5 | CCc1nc([C@@H](C)N(C(=O)[C@H]2CNCCO2)C2CC2)cc2c1c(C#N)cn2CCCOC [Example 161] | 9.15 | 
6 | COCCCn1ncc2c(F)cc([C@@H](C)N(C(=O)[C@H]3CNCCO3)C3CC3)cc21 [Example 23] |  | 8.62
7 | COC(=O)NCCCn1cc([C@@H](C)N(C(=O)[C@H]2CNCCO2)C2CC2)nc1-c1ccccc1C [Example 179] | 9.52 | 
8 | COC(=O)NCCCn1nc([C@@H](C)N(C(=O)[C@H]2CNCCO2)C2CC2)c2ccc(C)cc21 [Example 29] |  | 9.22
9 | COC(=O)NCCOc1cc([C@@H](C)N(C(=O)[C@H]2CNCCO2)C2CC2)nn1-c1ccccc1 [Example 208] | 8.64 | 
10 | COC(=O)NCCCc1cc([C@@H](C)N(C(=O)[C@H]2CNCCO2)C2CC2)sc1-c1cncnc1 [Example 242] | 9.10 | 
11 | CC(=O)NCCn1nc(C)c2ccc([C@@H](C)N(C(=O)[C@H]3CNCCO3)C3CC3)cc21 [Example 8] |  | 8.36
12 | COCCCCc1cc([C@@H](C)N(C(=O)[C@H]2CNC[C@@H](COC)O2)C2CC2)cc(OC)n1 [Example 304] | 9.15 | 
13 | COCCCc1cn(C)c2ncc([C@@H](C)N(C(=O)[C@H]3CNCCO3)C3CC3)cc12 [Example 47] |  | 8.32
14 | COCCCc1cn(C)c2c(C)nc([C@@H](C)N(C(=O)[C@H]3CNCCO3)C3CC3)cc12 [Example 113] | 8.85 | 
15 | COCCCc1cn(C)c2ccc([C@@H](C)N(C(=O)[C@H]3CNCCO3)C3CC3)cc12 [Example 48] |  | 8.82
16 | COC(=O)NCCCn1nc([C@@H](C)N(C(=O)[C@H]2CN[C@@H](COCc3ccccc3)CO2)C2CC2)c2ccc(C)nc21 [Example 257] | 8.89 | 
17 | COCc1cccc2c([C@@H](C)N(C(=O)[C@H]3CNCCO3)C3CC3)nn(CCCNC(=O)OC)c12 [Example 81] |  | 9.40
18 | COC(=O)NCCCc1cc([C@@H](C)N(C(=O)[C@H]2CNCCO2)C2CC2)nn1C(C)C [Example 225] | 9.30 | 
19 | COC(=O)NCCCn1nc([C@@H](C)N(C(=O)[C@H]2CNCCO2)C2CC2)c(F)c1-c1ccccn1 [Example 216] | 10.00 | 
20 | COC(=O)NCCCn1nc([C@@H](C)N(C(=O)[C@H]2CNCCO2)C2CC2)cc1-c1ncccc1C [Example 187] | 9.30 | 
21 | COC(=O)NCCCn1cc([C@@H](C)N(C(=O)[C@H]2CNC[C@@H](C(F)(F)F)O2)C2CC2)c2ncccc21 [Example 252] | 8.19 | 

Row | Structure (SMILES) | pIC50 [1] | pIC50 (read-out: IC50)
22 | COC(=O)NCCCn1cc([C@@H](C)N(C(=O)[C@H]2CNCCO2)C2CC2)nc1-c1ccccc1Cl [Example 169] | 9.52 | 
23 | COC(=O)NCCCc1cc([C@@H](C)N(C(=O)[C@H]2CNCCO2)C2CC2)sc1-c1cccc(-c2nnn[nH]2)c1 [Example 263] | 9.70 | 
24 | COC[C@H]1CO[C@@H](C(=O)N(C2CC2)[C@H](C)c2cc(CCCNC(=O)OC)n(C(C)C)n2)CN1 [Example 300] | 8.55 | 
25 | COCCCn1cc(CCCNC(=O)OC)c2cnc([C@@H](C)N(C(=O)[C@H]3CNCCO3)C3CC3)cc21 [Example 83] |  | 8.68
26 | COC[C@H]1CO[C@@H](C(=O)N(C2CC2)[C@H](C)c2cn(CCCNC(=O)OC)c3ncccc23)CN1 [Example 295] | 8.82 | 
27 | COC(=O)NCCCc1cc(OC)cc([C@@H](C)N(C(=O)[C@H]2CNCCO2)C2CC2)c1 [Example 85] |  | 9.00
28 | COC(=O)NCCCn1nc([C@@H](C)N(C(=O)[C@H]2CNCCO2)C2CC2)c2ccc(CN(C)C)nc21 [Example 100] |  | 8.05
29 | COC(=O)NCCCn1nc([C@@H](C)N(C(=O)[C@H]2CNC[C@@H](C(=O)OC)O2)C2CC2)c2ccc(C)nc21 [Example 254] | 9.30 | 
30 | COC(=O)NCCOc1cc([C@@H](C)N(C(=O)[C@H]2CNCCO2)C2CC2)nc2c1CCCC2 [Example 104] |  | 8.09
31 | COC(=O)NCCCn1nc([C@@H](C)N(C(=O)[C@H]2CNCCO2)C2CC2)c(C)c1-c1ccccn1 [Example 220] | 9.40 | 
32 | COC(=O)NCCCc1cc([C@@H](C)N(C(=O)[C@H]2CNCCO2)C2CC2)nn1-c1ccc(C)cc1 [Example 231] | 8.92 | 
33 | COC(=O)NCCCn1nc([C@@H](C)N(C(=O)[C@H]2CNCCO2)C2CC2)c(F)c1-c1ccccc1 [Example 192] | 9.70 | 
34 | COC(=O)NCCCc1nc(OC)cc([C@@H](C)N(C(=O)[C@H]2CNCCO2)C2CC2)n1 [Example 298] | 8.46 | 
35 | COC(=O)NCCCn1nc([C@@H](C)N(C(=O)[C@H]2CNCCO2)C2CC2)c2ccc(CN(C)C)cc21 [Example 111] |  | 8.46
36 | COCCCCn1cc([C@@H](C)N(C(=O)[C@H]2CNCCO2)C2CC2)c2ncc(OC)cc21 [Example 40] |  | 9.15
37 | COCCCCc1cc([C@@H](C)N(C(=O)[C@H]2CNCCO2)C2CC2)nn1-c1ccccc1 [Example 232] | 9.22 | 
38 | COC(=O)NCCCn1nc([C@@H](C)N(C(=O)[C@H]2CNCCO2)C2CC2)cc1-c1ccc(C)cn1 [Example 184] | 9.30 | 
39 | CCCCCc1cc([C@@H](C)N(C(=O)[C@H]2CNC[C@@H](C)O2)C2CC2)sc1-c1ccccc1-c1nn[nH]n1 [Example 294] | 8.22 | 
40 | COC(=O)NCCCc1cc([C@@H](C)N(C(=O)[C@H]2CNCCO2)C2CC2)cc(C(C)C)n1 [Example 99] |  | 8.74
41 | COC(=O)NCCCn1nc([C@@H](C)N(C(=O)[C@H]2CNCCO2)C2CC2)cc1C(C)C [Example 188] | 9.30 | 

The remaining lines, values ahead:

Row | pIC50 [1] | pIC50 (read-out: IC50) | Structure (SMILES)
42 | 8.46 |  | COC(=O)NCCCn1cc([C@@H](C)N(C(=O)[C@H]2CNCCO2)C2CC2)nc1C(F)(F)F [Example 319]
43 | 8.47 |  | COC(=O)NCCCc1nc([C@@H](C)N(C(=O)[C@H]2CNCCO2)C2CC2)sc1-c1ccccc1F [Example 417]
44 | 9.10 |  | COCCCOc1cc([C@@H](C)N(C(=O)[C@H]2CNCCO2)C2CC2)nn1-c1ccccc1 [Example 361]
45 | 8.64 |  | COC(=O)NCCCc1nc([C@@H](C)N(C(=O)[C@H]2CNCCO2)C2CC2)sc1-c1cccc(F)c1 [Example 400]
46 | 8.46 |  | CCOc1ncc(C(C)N(C(=O)[C@H]2CNC[C@@H](C)O2)C2CC2)nc1CCCNC(=O)OC (stereo partly shown) [Example 395]
47 | 9.10 |  | COCCCc1cc([C@@H](C)N(C(=O)[C@H]2CNC[C@@H](C)O2)C2CC2)cc(CCCNC(=O)OC)n1 [Example 373]
48 | 9.15 |  | COCCOc1cc([C@@H](C)N(C(=O)[C@H]2CNC[C@@H](C)O2)C2CC2)cc(CCCNC(=O)OC)n1 [Example 366]
49 | 8.96 |  | COC[C@H]1CO[C@@H](C(=O)N(C2CC2)[C@@H](C)c2nn(CCCNC(=O)OC)c(C3CCOCC3)c2F)CN1 [Example 328]
50 | 8.92 |  | COC(=O)NCCCn1nc([C@@H](C)N(C(=O)[C@H]2CN[C@@H](CC(F)F)CO2)C2CC2)c2ccc(C)nc21 [Example 305]
51 | 8.02 |  | COC(=O)NCCCc1nc([C@@H](C)N(C(=O)[C@H]2CNCCO2)C2CC2)cnc1N(C)C [Example 442]
52 | 9.00 |  | COC(=O)NCCCc1cc([C@@H](C)N(C(=O)[C@H]2CNCCO2)C2CC2)sc1C#CC(C)(C)O [Example 423]
53 | 9.40 |  | CCOC[C@@H]1CNC[C@H](C(=O)N(C2CC2)[C@@H](C)c2cc(CCCNC(=O)OC)nc(OC)c2)O1 [Example 311]
54 | 8.55 |  | COC(=O)NCCCc1nc([C@@H](C)N(C(=O)[C@H]2CNCCO2)C2CC2)sc1-c1ccccc1C(=O)OC [Example 414]
55 | 8.77 |  | COC(=O)NCCCc1cc([C@@H](C)N(C(=O)[C@H]2CNC[C@@H](C(F)(F)F)O2)C2CC2)nn1-c1ccccc1 [Example 367]
56 | 9.15 |  | COC(=O)NCCCc1cc([C@@H](C)N(C(=O)[C@H]2CNCCO2)C2CC2)nn1-c1cccc(C(F)(F)F)c1 [Example 348]
57 | 8.64 |  | COC[C@H]1CO[C@@H](C(=O)N(C2CC2)[C@@H](C)c2cc(OC(C)C)n(CCCNC(=O)OC)n2)CN1 [Example 331]
58 | 9.30 |  | COC(=O)NCCCc1cc([C@H](C)N(C(=O)[C@H]2CNC[C@@H](CO)O2)C2CC2)cc(OC)n1 [Example 308]
59 | 8.89 |  | COCCOc1cc([C@@H](C)N(C(=O)[C@H]2CNC[C@@H](COC)O2)C2CC2)cc(CCCNC(=O)OC)n1 [Example 383]
60 | 8.41 |  | COC(=O)NCCCc1cc(C(C)N(C(=O)[C@H]2CNCCO2)C2CC2)sc1C(C)C (stereo partly shown) [Example 418]
61 | 9.22 |  | COC(=O)NCCCc1cc([C@@H](C)N(C(=O)[C@H]2CNCCO2)C2CC2)sc1-c1cnc(N)nc1 [Example 412]
62 | 9.40 |  | COC(=O)NCCCn1nc([C@H](C)N(C(=O)[C@H]2CNCCO2)C2CC2)cc1OC(C)C [Example 326]
63 | 8.66 |  | COC(=O)NCCCc1nc([C@@H](C)N(C(=O)[C@H]2CNCCO2)C2CC2)sc1-c1cn[nH]c1 [Example 421]
64 | 8.49 |  | COCCOc1cc([C@H](C)N(C(=O)[C@H]2CNC[C@@H](COC)O2)C2CC2)cc(CCCNC(=O)OC)n1 [Example 384]
65 | 9.00 |  | COC(=O)NCCCc1cc([C@H](C)N(C(=O)[C@H]2CNCCO2)C2CC2)cnc1C(C)C [Example 315]
66 | 8.24 |  | COC(=O)NC/C=C/c1cc([C@@H](C)N(C(=O)[C@H]2CN[C@@H](C)CO2)C2CC2)nn1-c1ccccc1 [Example 358]
67 | 8.46 |  | COC(=O)NCCCn1nc([C@@H](C)N(C(=O)[C@H]2CNC[C@@H](C)O2)C2CC2)cc1C(C)(C)c1ccccc1 [Example 390]
